Laboratory results taken from ChEMBL document CHEMBL4765432, “Design and synthesis of novel Flavone-based histone deacetylase inhibitors antagonizing activation of STAT3 in breast cancer” (Eur J Med Chem, 2020).
Calls of active or inactive are those of the source. The rule behind the calls is not given here.

Key:
[1] = Toxicity in C57BL/6 mouse assessed death of organism at 300 mg/kg, ip observed for 24 hrs; format: organism-based; details: in vivo
Histone deacetylase 2 = Histone deacetylase 2 (Homo sapiens, UniProt Q92769); assay: Inhibition of recombinant human C-terminal GST-tagged full length HDAC-2 expressed in baculovirus infected in Sf9 cells using Boc-Lys (q-Ac)-AMC as substrate incubated for 10 mins followed by substrate addition and measured after 30 mins by fluorescence based assay
Histone deacetylase 3 = Histone deacetylase 3 (Homo sapiens, UniProt O15379); assay: Inhibition of recombinant human C-terminal GST-tagged full length HDAC-3 expressed in baculovirus infected in Sf9 cells using Boc-Lys (q-Ac)-AMC as substrate incubated for 10 mins followed by substrate addition and measured after 30 mins by fluorescence based assay
Histone deacetylase 4 = Histone deacetylase 4 (Homo sapiens, UniProt P56524); assay: (§1) Inhibition of recombinant human N-terminal GST-tagged HDAC-4 (612 to end residues) expressed in baculovirus infected in Sf9 cells using Boc-Lys (q-Ac)-AMC as substrate incubated for 10 mins followed by substrate addition and measured after 30 mins by fluorescence based assay
[2] = molecular target: Histone deacetylase 7 (Homo sapiens) (UniProt Q8WUI4); assay: as §1, with “HDAC-7 (501” for “HDAC-4 (612”, “cells at 10 uM” for “cells”, “assay relative to control” for “assay”; details: time 40.0 min
Histone deacetylase 8 = Histone deacetylase 8 (Homo sapiens, UniProt Q9BY41); assay: Inhibition of recombinant human N-terminal GST-tagged full length HDAC-8 expressed in baculovirus infected in Sf9 cells using Boc-Lys (q-Ac)-AMC as substrate incubated for 10 mins followed by substrate addition and measured after 30 mins by fluorescence based assay
MDA-MB-231 [3] = assay: Induction of apoptosis in human MDA-MB-231 cells xenografted in BALB/c mouse assessed as increase in caspase-3 cleavage by immunohistochemistry method; format: functional, cell-based
[4] = Cytotoxicity against human B16-F10 cells assessed as reduction in cell viability incubated for 48 hrs by MTT assay; format: functional, cell-based; details: B16-F10, 48 h
A549 = assay: Cytotoxicity against human A549 cells assessed as reduction in cell viability incubated for 48 hrs by MTT assay; format: functional, cell-based; details: A549, 48 h
PANC-1 = assay: Cytotoxicity against human PANC-1 cells assessed as reduction in cell viability incubated for 48 hrs by MTT assay; format: functional, cell-based; details: PANC-1, 48 h
L02 = assay: Cytotoxicity against human L02 cells assessed as reduction in cell viability incubated for 48 hrs by MTT assay; format: ADME, cell-based; details: L02, 48 h
MDA-MB-231 [5] = assay: Induction of cell cycle arrest in human MDA-MB-231 cells assessed as S phase accumulation at 1 uM incubated for 24 hrs by PI staining based flow cytometry analysis (reference value: 43.82 %); format: functional
MDA-MB-231 [6] = assay: Induction of cell cycle arrest in human MDA-MB-231 cells assessed as G2/M phase accumulation at 1 uM incubated for 24 hrs by PI staining based flow cytometry analysis (reference value: 27.08 %); format: functional
4T1 [7] = assay: Induction of cell cycle arrest in mouse 4T1 cells assessed as G2/M phase accumulation at 1 uM incubated for 24 hrs by PI staining based flow cytometry analysis (reference value: 38.51 %); format: functional
4T1 [8] = assay: Induction of cell cycle arrest in mouse 4T1 cells assessed as G0/G1 phase accumulation at 2 uM incubated for 24 hrs by PI staining based flow cytometry analysis (reference value: 42.06 %); format: functional
4T1 [9] = assay: Induction of cell cycle arrest in mouse 4T1 cells assessed as G2/M phase accumulation at 2 uM incubated for 24 hrs by PI staining based flow cytometry analysis (reference value: 38.51 %); format: functional
MDA-MB-231 [10] = assay: Induction of cell cycle arrest in human MDA-MB-231 cells assessed as increase in p21 expression at 0.25 to 5 uM incubated for 24 hrs by Western blot analysis; format: functional, cell-based; details: dose 0.25-5 µM
MDA-MB-231 [11] = assay: Induction of apoptosis in human MDA-MB-231 cells assessed as viable cells at 1 uM incubated for 72 hrs by annexinV-FITC and PI staining based flow cytometry analysis (reference value: 90.3 %); format: functional; details: read-out: Activity
MDA-MB-231 [12] = assay: Induction of apoptosis in human MDA-MB-231 cells assessed as early apoptotic cells at 1 uM incubated for 72 hrs by annexinV-FITC and PI staining based flow cytometry analysis (reference value: 5.57 %); format: functional
MDA-MB-231 [13] = assay: Induction of apoptosis in human MDA-MB-231 cells assessed as necrotic cells at 2.5 uM incubated for 72 hrs by annexinV-FITC and PI staining based flow cytometry analysis (reference value: 0.330 %); format: functional
MDA-MB-231 [14] = assay: Induction of apoptosis in human MDA-MB-231 cells assessed as early apoptotic cells at 5 uM incubated for 72 hrs by annexinV-FITC and PI staining based flow cytometry analysis (reference value: 5.57 %); format: functional
MDA-MB-231 [15] = assay: Induction of apoptosis in human MDA-MB-231 cells assessed as late apoptotic cells at 5 uM incubated for 72 hrs by annexinV-FITC and PI staining based flow cytometry analysis (reference value: 3.79 %); format: functional
4T1 [16] = assay: Induction of apoptosis in mouse 4T1 cells assessed as early apoptotic cells at 1 uM incubated for 72 hrs by annexinV-FITC and PI staining based flow cytometry analysis (reference value: 1.65 %); format: functional
4T1 [17] = assay: Induction of apoptosis in mouse 4T1 cells assessed as late apoptotic cells at 1 uM incubated for 72 hrs by annexinV-FITC and PI staining based flow cytometry analysis (reference value: 2.24 %); format: functional
4T1 [18] = assay: Induction of apoptosis in mouse 4T1 cells assessed as necrotic cells at 2.5 uM incubated for 72 hrs by annexinV-FITC and PI staining based flow cytometry analysis (reference value: 5.00 %); format: functional
4T1 [19] = assay: Induction of apoptosis in mouse 4T1 cells assessed as viable cells at 5 uM incubated for 72 hrs by annexinV-FITC and PI staining based flow cytometry analysis (reference value: 91.1 %); format: functional; details: read-out: Activity
MDA-MB-231 [20] = assay: Induction of apoptosis in human MDA-MB-231 cells assessed as increase in caspase-3 cleavage incubated for 48 hrs by Western blot analysis; format: functional, cell-based; details: dose 0.5-10 µM
[21] = Cmax in Sprague-Dawley rat at 20 mg/kg, po measured upto 12 hrs by LC-MS/MS analysis; format: ADME, organism-based; parameters: route oral, dose 20 mg/kg, time <=12; details: in vivo
[22] = Tmax in Sprague-Dawley rat at 20 mg/kg, po measured upto 12 hrs by LC-MS/MS analysis; format: ADME, organism-based; details: in vivo
[23] = Half life in Sprague-Dawley rat at 20 mg/kg, po measured upto 12 hrs by LC-MS/MS analysis; format: ADME, organism-based; details: in vivo
[24] = Cmax in Sprague-Dawley rat at 20 mg/kg, iv measured upto 12 hrs by LC-MS/MS analysis; format: ADME, organism-based; parameters: route intravenous, dose 20 mg/kg, time <=12; details: in vivo
[25] = Genotoxicity in Salmonella typhimurium TA100 by Ames test; format: toxicity; details: salmonella enterica subsp. enterica serovar typhimurium
[26] = Toxicity in BALB/c mouse xenografted with human MDA-MB-231 cells assessed as effect on body weight at 25 mg/kg, ip administered for 34 days and measured on day 34; format: organism-based; details: in vivo, 816 h, time 34 day
4T1 [27] = assay: Induction of apoptosis in mouse 4T1 cells implanted in BALB/c mouse assessed as increase in caspase-3 cleavage by immunohistochemistry method; format: functional, cell-based

Chain of Histone deacetylase 4 (P56524 whole entry): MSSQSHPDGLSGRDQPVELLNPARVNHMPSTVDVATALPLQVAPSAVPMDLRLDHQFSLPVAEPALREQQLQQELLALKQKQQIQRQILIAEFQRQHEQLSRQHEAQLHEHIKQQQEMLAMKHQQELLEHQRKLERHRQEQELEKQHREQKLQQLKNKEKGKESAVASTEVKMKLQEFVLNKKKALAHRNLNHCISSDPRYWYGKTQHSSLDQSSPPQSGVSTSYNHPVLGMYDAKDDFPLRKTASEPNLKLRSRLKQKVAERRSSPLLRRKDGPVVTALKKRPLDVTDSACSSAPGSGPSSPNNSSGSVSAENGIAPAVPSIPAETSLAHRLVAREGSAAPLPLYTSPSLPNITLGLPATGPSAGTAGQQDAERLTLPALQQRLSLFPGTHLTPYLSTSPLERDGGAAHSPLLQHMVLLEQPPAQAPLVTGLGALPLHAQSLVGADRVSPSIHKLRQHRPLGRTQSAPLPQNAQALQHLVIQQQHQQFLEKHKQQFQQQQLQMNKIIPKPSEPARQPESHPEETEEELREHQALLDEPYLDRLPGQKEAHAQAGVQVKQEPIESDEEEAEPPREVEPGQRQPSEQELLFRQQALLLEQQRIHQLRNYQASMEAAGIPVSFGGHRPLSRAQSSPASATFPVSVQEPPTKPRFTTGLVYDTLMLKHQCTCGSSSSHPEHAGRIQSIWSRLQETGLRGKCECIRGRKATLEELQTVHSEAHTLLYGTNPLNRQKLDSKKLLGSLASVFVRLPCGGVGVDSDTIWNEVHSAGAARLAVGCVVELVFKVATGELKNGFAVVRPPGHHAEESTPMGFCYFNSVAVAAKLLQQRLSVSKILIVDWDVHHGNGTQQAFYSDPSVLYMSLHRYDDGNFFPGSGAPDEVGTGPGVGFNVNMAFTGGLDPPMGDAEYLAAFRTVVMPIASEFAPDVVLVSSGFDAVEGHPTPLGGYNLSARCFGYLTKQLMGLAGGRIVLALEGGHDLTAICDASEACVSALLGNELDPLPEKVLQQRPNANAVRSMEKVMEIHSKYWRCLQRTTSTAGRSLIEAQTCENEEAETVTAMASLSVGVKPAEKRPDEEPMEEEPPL
Chain of Histone deacetylase 8 (Q9BY41 whole entry): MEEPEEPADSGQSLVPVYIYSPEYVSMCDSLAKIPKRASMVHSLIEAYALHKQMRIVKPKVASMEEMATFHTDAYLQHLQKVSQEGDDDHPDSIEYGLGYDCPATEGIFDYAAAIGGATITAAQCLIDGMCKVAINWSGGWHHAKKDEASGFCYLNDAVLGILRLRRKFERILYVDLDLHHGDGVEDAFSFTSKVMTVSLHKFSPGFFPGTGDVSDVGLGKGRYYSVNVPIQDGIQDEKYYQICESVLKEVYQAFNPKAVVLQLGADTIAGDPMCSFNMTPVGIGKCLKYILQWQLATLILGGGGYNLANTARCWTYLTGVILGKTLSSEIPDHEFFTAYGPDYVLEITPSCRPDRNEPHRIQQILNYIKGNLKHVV
Chain of Histone deacetylase 2 (Q92769 whole entry): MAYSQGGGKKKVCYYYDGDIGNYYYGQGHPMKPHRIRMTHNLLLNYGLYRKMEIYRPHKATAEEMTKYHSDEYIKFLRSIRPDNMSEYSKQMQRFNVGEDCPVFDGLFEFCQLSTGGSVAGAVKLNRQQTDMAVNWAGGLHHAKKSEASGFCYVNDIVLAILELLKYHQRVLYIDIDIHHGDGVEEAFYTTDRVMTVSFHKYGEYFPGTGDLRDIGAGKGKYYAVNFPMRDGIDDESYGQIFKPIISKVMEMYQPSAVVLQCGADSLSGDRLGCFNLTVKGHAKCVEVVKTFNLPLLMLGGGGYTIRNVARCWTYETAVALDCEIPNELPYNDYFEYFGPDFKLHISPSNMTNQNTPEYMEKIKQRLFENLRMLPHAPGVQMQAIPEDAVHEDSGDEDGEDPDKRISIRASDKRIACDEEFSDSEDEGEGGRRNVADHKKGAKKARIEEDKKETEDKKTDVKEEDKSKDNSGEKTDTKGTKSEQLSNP
Chain of Histone deacetylase 3 (O15379 whole entry): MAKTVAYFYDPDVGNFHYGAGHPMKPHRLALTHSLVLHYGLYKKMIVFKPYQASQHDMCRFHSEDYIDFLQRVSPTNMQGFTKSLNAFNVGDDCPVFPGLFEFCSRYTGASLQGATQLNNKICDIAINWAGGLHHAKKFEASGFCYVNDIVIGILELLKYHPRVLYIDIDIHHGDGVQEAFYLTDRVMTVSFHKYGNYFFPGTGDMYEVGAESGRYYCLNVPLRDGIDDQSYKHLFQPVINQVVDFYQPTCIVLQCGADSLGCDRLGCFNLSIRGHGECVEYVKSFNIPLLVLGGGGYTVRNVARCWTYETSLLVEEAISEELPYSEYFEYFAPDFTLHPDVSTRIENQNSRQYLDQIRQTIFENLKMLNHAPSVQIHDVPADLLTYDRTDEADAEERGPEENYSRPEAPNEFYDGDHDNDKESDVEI
Chain of Histone deacetylase 7 (Homo sapiens) (Q8WUI4 whole entry): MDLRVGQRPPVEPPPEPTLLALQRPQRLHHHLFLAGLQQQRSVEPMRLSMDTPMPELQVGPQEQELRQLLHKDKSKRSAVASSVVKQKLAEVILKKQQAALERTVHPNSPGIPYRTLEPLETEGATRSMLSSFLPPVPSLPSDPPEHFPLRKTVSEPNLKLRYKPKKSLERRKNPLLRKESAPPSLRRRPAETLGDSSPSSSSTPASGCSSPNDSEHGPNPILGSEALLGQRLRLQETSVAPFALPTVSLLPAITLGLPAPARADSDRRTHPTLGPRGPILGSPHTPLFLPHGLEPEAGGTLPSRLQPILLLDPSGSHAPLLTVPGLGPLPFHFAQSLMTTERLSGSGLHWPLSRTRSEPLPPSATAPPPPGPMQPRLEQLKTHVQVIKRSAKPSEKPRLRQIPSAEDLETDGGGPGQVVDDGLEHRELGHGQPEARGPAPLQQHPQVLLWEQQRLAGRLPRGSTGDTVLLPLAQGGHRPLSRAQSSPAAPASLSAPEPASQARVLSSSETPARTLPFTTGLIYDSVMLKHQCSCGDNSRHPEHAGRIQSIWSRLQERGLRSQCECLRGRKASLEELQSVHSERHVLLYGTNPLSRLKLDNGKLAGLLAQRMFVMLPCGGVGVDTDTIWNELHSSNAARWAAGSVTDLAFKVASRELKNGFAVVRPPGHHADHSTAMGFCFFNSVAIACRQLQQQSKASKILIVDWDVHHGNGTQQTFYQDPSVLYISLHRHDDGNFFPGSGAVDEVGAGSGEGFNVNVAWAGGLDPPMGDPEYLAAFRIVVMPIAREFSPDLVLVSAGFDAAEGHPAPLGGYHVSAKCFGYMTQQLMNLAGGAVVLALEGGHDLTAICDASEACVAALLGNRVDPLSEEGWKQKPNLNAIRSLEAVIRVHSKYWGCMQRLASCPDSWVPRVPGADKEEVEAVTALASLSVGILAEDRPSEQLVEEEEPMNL

Q: What does the source list for `CN(C)CCOc1ccc(-c2cc(=O)c3c(O)cc(OCCCCCC(=O)NO)cc3o2)cc1.Cl`?
A: Activity [1]: Non-Toxic; IC50 (Histone deacetylase 2): 0.0585 µM; IC50 (Histone deacetylase 3): 0.0792 µM; IC50 (Histone deacetylase 4): 0.307 µM; inhibition [2]: 43%; IC50 (Histone deacetylase 8): 2.5 µM; Activity (MDA-MB-231 [3]): Active; IC50 [4]: 0.51 µM; IC50 (A549): 1.08 µM; IC50 (PANC-1): > 10 µM; IC50 (L02): > 10 µM; Activity (MDA-MB-231 [5]): 8.09%; Activity (MDA-MB-231 [6]): 42.82%; Activity (4T1 [7]): 19.39%; Activity (4T1 [8]): 62.91%; Activity (4T1 [9]): 11.51%; Activity (MDA-MB-231 [10]): Active; viability at 1 µM (MDA-MB-231 [11]): 64.8%; Activity (MDA-MB-231 [12]): 23.1%; Activity (MDA-MB-231 [13]): 0.11%; Activity (MDA-MB-231 [14]): 55%; Activity (MDA-MB-231 [15]): 27.2%; Activity (4T1 [16]): 15.5%; Activity (4T1 [17]): 8.59%; Activity (4T1 [18]): 1.8%; viability at 5 µM (4T1 [19]): 22.5%; Activity (MDA-MB-231 [20]): Dose-dependent effect; Cmax [21]: 1.28 µg/mL; Tmax [22]: 20 min; half-life [23]: 14.9 min; Cmax [24]: 2.18 µg/mL; Activity [25]: Toxic; Activity [26]: Non-Toxic; Activity (4T1 [27]): Active
